Converted amounts (≈) assume the structure as drawn. Like-named read-outs stand apart in the source and are kept apart here.
Legend:
Type in all cases: cell-based
Staphylococcus aureus [1] = test: Agar dilution method (MIC determination); conditions: lowest concentration with complete inhibition of growth, 37 °C, 18 to 24 h, mean of duplicate determinations
Description: (§1) Die antibakterielle Wirksamkeit der Wirkstoffe und Wirkstoffinischungen wurde mit Hilfe der Diffusionsmethode auf Agar-Platten bzw. der Agar-Verdünnungsmethode untersucht. Dabei wird zunächst ein rundes Filterpapier definierten Durchmessers mit der Testlösung getränkt und dieses dann auf die Oberfläche einer Agarplatte aufgebracht, welche zuvor mit den Testmikroorganismen inokuliert worden war. Anschließend wird nach definierten Zeiten die Größe der Inhibierungszonen bestimmt. Diese Technik erlaubt es insbesondere die MIC (Minimum Inhibitory Concentration) als die niedrigste Testsubstanzkonzentration zu bestimmen, mit der noch eine vollständige Inhibierung der Mikroorganismen erzielt werden kann.
(§2) Agar Verdünnungsmethode (MIC-Bestimmung). Wie oben beschrieben wurden verschiedene Agars vorbereitet, mit unterschiedlichen Konzentrationen an Testsubstanzen versetzt, homogenisiert und dann getrocknet. Anschließend erfolgte die Inokulation der Petrischalen mit jeweils 2 µl der Bakteriensuspensionen. […] Es handelt sich jeweils um den Mittelwert von Doppelbestimmungen.

[2] = tested on: Staphylococcus epidermidis; test: Agar dilution method (MIC determination); conditions: lowest concentration with complete inhibition of growth, 37 °C, 18 to 24 h, mean of duplicate determinations
Description: as §1, §2

Propionibacterium acnes [3] = test: Agar dilution method (MIC determination); conditions: lowest concentration with complete inhibition of growth, 37 °C, 18 to 24 h, mean of duplicate determinations
Description: as §1, §2

Staphylococcus aureus [4] = test: Agar diffusion method (inhibition zones); conditions: diameter of inhibition zone; Mueller-Hinton agar; filter paper with 20 µl test substance; 18 to 24 at 37 °C
Description: as §1
(§3) Agar-Diffusionsmethode. Das Inokulum wurde unter Verwendung einer frischen Kultur in einer stationären Wachstumsphase (nach ca. 18-24 h) in einer BHI-Lösung (Brain-Heart-InfüsionI) hergestellt. Die Bakteriensuspension wurde auf 0,5 MacFarland-Einheiten eingestellt, entsprechend 1,5 10^8 Kolonienbildende Einheiten (cfu)/ml; anschließend wurde die Suspension mit einer Kochsalzlösung 1/100 verdünnt, um einen Wert von 1,5 10^6 cfu/ml einzustellen. Anschließend wurde Mueller-Hinton Agar (Staphylococcus epidermis, Staphylococcus aureus) und Wilkins-Chalgrens Agar mit 5 Gew.-% Schafsblut (Propionobakterium acnes) 15 min bei 121 °C sterilisiert und dann in Petrischalen gegeben. Die Petrischalen wurden mit 2 bis 4 ml der Bakteriensuspensionen versetzt und bei Raumtemperatur getrocknet. Die Filterpapiere wurden mit 20 µl der Testsubstanzen getränkt und auf die Oberfläche der Agarplatten aufgebracht. Die inokulierten Petrischalen wurden 18 bis 24 bei 37 °C inkubiert (die Petrischalen mit Propionibacterium acnes unter anaeroben Bedingungen) und die antimikrobielle Wirksamkeit anschließend durch Bestimmung der Wachstumsinhibierungszone ermittelt. Die Ergebnisse sind in Tabelle 1 zusammengefasst. Angegeben sind ist jeweils der Durchmesser der Inhibierungsflächen in mm.

[5] = tested on: Staphylococcus epidermidis; test: Agar diffusion method (inhibition zones); conditions: diameter of inhibition zone; Mueller-Hinton agar; filter paper with 20 µl test substance; 18 to 24 at 37 °C
Description: as §1, §3

Propionibacterium acnes [6] = test: Agar diffusion method (inhibition zones); conditions: diameter of inhibition zone; Wilkins-Chalgren agar with 5 wt% sheep blood; 20 µl test substance; 18 to 24 at 37 °C, anaerobic
Description: as §1, §3

| MIC (Staphylococcus aureus [1]; Staphylococcus aureus, read-out: MIC) [µg/mL] | MIC ([2]; Staphylococcus epidermidis, read-out: MIC) [µg/mL] | MIC (Propionibacterium acnes [3]; Cutibacterium acnes, read-out: MIC) [µg/mL] | Compound | Inhibierungszonen (Staphylococcus aureus [4]) [mm] | Inhibierungszonen [5] [mm] | Inhibierungszonen (Propionibacterium acnes [6]) [mm] | MIC (Staphylococcus aureus [1]) [µg/mL] | MIC [2] | MIC (Propionibacterium acnes [3]) |
| --- | --- | --- | --- | --- | --- | --- | --- | --- | --- |
| > 10000 | 1250 (≈ 5.16 mM) | 1250 (≈ 5.16 mM) | O=C(OOC(=O)c1ccccc1)c1ccccc1 [A1, Benzoylperoxid] | 5 | 5 | 7 | – | – | – |
| – | – | – | Glyzyrrhetinsäure-Zinksalz [B1] | 5 | 5 | 4 | >10000 | 1,25 mg/ml | 1,25 mg/ml |

Reference: patent EP1382341A1, “Use of compositions comprising glycyrrhetinic acid and benzoyl peroxide for acne treatment” (Cognis Iberia, S.L., priority 2002, dated 2004)
